Results reported in US4279822A, “N-(1-Substituted-3-pyrrolidinyl)benzamides” (A. H. Robins Company, Inc., priority 1976, dated 1981).

The compounds below were run on apomorphine-induced emesis in dogs (assay: Reduction of apomorphine-induced emesis in dogs (anti-emetic effect)). Conditions: Canis lupus familiaris, sc, 40 min, read-out: ED50, Anti-Emetic Effect of Subcutaneous Administration.
Type: in vivo
Protocol: The anti-emetic properties of the compounds of Formula I were established using a modification of the methods of Chen and Ensor, J. Pharmac. Exp. Ther. 98: 245-250 (1950) and of Leonard et al., J. Pharmac. Exp. Ther. 154: 339-345 (1966). Drug activity was assessed by its ability to reduce the frequency of apomorphine-induced emesis in dogs. The dogs were prescreened for fairly constant emetic responses to the subcutaneous administration of 0.1 mg/kg. of apomorphine hydrochloride, and those which vomited five or more times in the 40-minute period after apomorphine administration were selected for drug studies.
Groups of three dogs were used in preliminary tests and for the determinations of time of peak drug effect. Dose response curves were usually obtained using four drug-treated groups; each group contained at least three dogs. The dogs were fed approximately 17 hours prior to a test. Drugs were administered and at suitable intervals the dogs received 0.1 mg/kg of apomorphine hydrochloride subcutaneously. Frequency of emesis was determined during the next 40 minutes and emesis was counted as the actual expulsion of stomach contents.
In oral studies, drugs were administered in gelatin capsules (controls received an empty capsule). In the subcutaneous studies, drugs were administered in distilled water and/or polyethylene glycol-300.
Dogs were re-used at intervals of not less than one week. The ED50 is the dose which reduces the frequency of emesis of drug treated dogs to a value 50% below that of controls. Mean frequency of emesis for each drug treated group was compared with a mean control value derived by pooling the prior control emetic frequencies for all dogs used on that test day. The difference is expressed as a percentage decrease relative to controls. The percent decrease in mean frequency of emesis for each drug-treated group (ordinate) was plotted against log dose (abscissa) on semi-log graph sheets. The ED50 was calculated by the method of Goldstein (Biostatistics, An Introductory Test; Pages 156-161; The MacMillan Co., New York, 1964).

Compound	ED50 [mg/kg]
CC(=O)Nc1ccc(C(=O)NC2CCN(C3CCCCC3)C2)cc1 (stereo not drawn) [Example 4, N-(1-Cyclohexyl-3-pyrrolidinyl)-4-acetamidobenzamide]	2.4
O=C(NC1CCN(C2CCCCC2)C1)c1cc([N+](=O)[O-])cc([N+](=O)[O-])c1 (stereo not drawn) [Example 6, N-(1-Cyclohexyl-3-pyrrolidinyl)-3,5-dinitrobenzamide]	0.15
O=C(NC1CCN(C2CCCCC2)C1)c1ccc(Cl)cc1Cl (stereo not drawn) [Example 14]	2.4

Same assay, conditions: Canis lupus familiaris, sc, 40 min; dogs, s.c.; doses expressed as free base; apomorphine hydrochloride 0.1 mg/kg s.c.; 50% reduction of emesis frequency vs controls, 40 min; read-out: ED50, Anti-Emetic Effect of Subcutaneous Administration

Compound	ED50 [mg/kg]
CNc1ccc(C(=O)N(C)C2CCN(C3CCCCC3)C2)cc1.Cl.Cl (stereo not drawn) [Example 5, 4-Methylamino-N-(1-cyclohexyl-3-pyrrolidinyl)-N-methylbenzamide Dihydrochloride]	0.05

Same assay, conditions: dogs, 5 mg/kg s.c.; percent reduction in emesis over that of controls; apomorphine hydrochloride 0.1 mg/kg s.c.

Compound	% Reduction in Emesis [%]
CS(=O)(=O)N(c1ccc(C(=O)NC2CCN(C3CCCCC3)C2)cc1)S(C)(=O)=O (stereo not drawn) [Example 8, N-(1-Cyclohexyl-3-pyrrolidinyl)-4-[bis(methylsulfonyl)amino]benzamide]	-44
CC(=O)Nc1cccc(C(=O)NC2CCN(C3CCCCC3)C2)c1 (stereo not drawn) [Example 33]	-87
CS(=O)(=O)Nc1ccc(C(=O)NC2CCN(C3CCCCC3)C2)cc1 (stereo not drawn) [Example 34]	-86
CC(=O)Nc1ccccc1C(=O)NC1CCN(C2CCCCC2)C1 (stereo not drawn) [Example 35]	-95
CC(=O)Nc1ccc(C(=O)NC2CCN(Cc3ccccc3)C2)cc1 (stereo not drawn) [Example 36]	-59
